Consider 41 compounds from ChEMBL document CHEMBL1149520, “Cyclopentane-based human NK1 antagonists. Part 1: discovery and initial SAR” (Bioorg Med Chem Lett, 2006).

Each structure is given as a SMILES string. In brackets after ≈: the same amount, converted by molar mass.

One series has as its target Substance-P receptor (Homo sapiens, UniProt P25103). The experiment in a line: biochemical.
The next series is described as follows: physchem. The note with it: sodium acetate/acetic acid buffer, pH 5.
The nature of series [1]: Dissociation constant, pKa of the compound. Type of series: physicochemical.
Series [2] in a line: Solubility in potassium hydrogen phosphate buffer at pH 5. Type of series: physicochemical.
For the next series, the species on record is Cavia porcellus. The experiment in a line: animal or person. The note with it: Plasma, po, read-out: Inhibition.
Series [3] can be described thus: Bioavailability in orally dosed rat. Format: ADME, organism-based. The settings on record: in vivo, po.
A short description of series [4]: Bioavailability in orally dosed dog. Type of series: ADME, organism-based, Canis lupus familiaris. The note with it: in vivo, po.

Chain of Substance-P receptor (P25103 whole entry): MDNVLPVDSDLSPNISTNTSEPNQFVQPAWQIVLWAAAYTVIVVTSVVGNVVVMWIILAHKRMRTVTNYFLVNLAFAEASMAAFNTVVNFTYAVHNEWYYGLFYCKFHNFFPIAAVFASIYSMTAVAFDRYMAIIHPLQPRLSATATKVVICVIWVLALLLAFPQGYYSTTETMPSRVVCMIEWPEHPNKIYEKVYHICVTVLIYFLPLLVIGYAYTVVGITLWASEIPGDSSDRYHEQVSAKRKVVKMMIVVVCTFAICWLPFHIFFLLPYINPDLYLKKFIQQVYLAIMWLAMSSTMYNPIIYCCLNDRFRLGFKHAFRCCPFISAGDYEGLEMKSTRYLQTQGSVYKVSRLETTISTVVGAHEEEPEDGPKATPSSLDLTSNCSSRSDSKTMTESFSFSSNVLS

As a reminder, the IC50 is the midpoint of a concentration-inhibition curve. On to `FC(F)(F)c1cc(CO[C@H]2CC[C@@H](CN3CCCCC3)[C@@H]2c2ccccc2)cc(C(F)(F)F)c1` (racemic), for which half-maximal inhibition at Substance-P receptor (IC50) required 5 nM. Still for that read-out and setting: the result for `COC(=O)N[C@H]1CC[C@H](OCc2cc(C(F)(F)F)cc(C(F)(F)F)c2)[C@@H]1c1ccccc1` (racemic) reads 5.3 nM. Still for that read-out and setting: the result for `O=C(N[C@H]1CC[C@H](OCc2cc(C(F)(F)F)cc(C(F)(F)F)c2)[C@@H]1c1ccccc1)OCc1ccccc1` (racemic) reads 300 nM; that for `NC(=O)[C@@H]1CC[C@H](OCc2cc(C(F)(F)F)cc(C(F)(F)F)c2)[C@H]1c1ccccc1` (racemic), 7.2 nM.

In general, solubility refers to how much of the substance goes into solution per volume. Read a low solubility as little dissolved substance. Consider `CN(CC[C@@H]1CC[C@H](OCc2cc(C(F)(F)F)cc(C(F)(F)F)c2)[C@H]1c1ccccc1)Cc1n[nH]c(=O)[nH]1` (racemic), for which, in the series “physchem”, the solubility was found to be 10 µg/mL (≈ 18.4 µM). The half-maximal inhibitory concentration (IC50) at Substance-P receptor was 4.9 nM. With `CN(Cc1n[nH]c(=O)[nH]1)C[C@H]1CC[C@H](OCc2cc(C(F)(F)F)cc(C(F)(F)F)c2)[C@@H]1c1ccccc1` (racemic), the solubility in “physchem” worked out at 80 µg/mL (≈ 151 µM). On Substance-P receptor, this compound registered an IC50 of 4.7 nM. Consider `N[C@H]1CC[C@H](OCc2cc(C(F)(F)F)cc(C(F)(F)F)c2)[C@@H]1c1ccccc1` (racemic), for which, at Substance-P receptor, half-maximal inhibition (IC50) was put at 7.9 nM. In “physchem”, `NC(=O)CNC[C@@H]1CC[C@H](OCc2cc(C(F)(F)F)cc(C(F)(F)F)c2)[C@H]1c1ccccc1` (racemic) had a solubility of 590 µg/mL (≈ 1240 µM). On Substance-P receptor, this compound returned an IC50 of 1.9 nM.

`OC[C@@H]1CC[C@H](OCc2cc(C(F)(F)F)cc(C(F)(F)F)c2)[C@H]1c1ccccc1` (racemic): the half-maximal inhibitory concentration (IC50) against Substance-P receptor amounted to 0.77 nM. Still for that read-out and setting: the result for `CN[C@@H]1CC[C@H](OCc2cc(C(F)(F)F)cc(C(F)(F)F)c2)[C@H]1c1ccccc1` (racemic) reads 0.83 nM; that for `N[C@@H]1CC[C@H](OCc2cc(C(F)(F)F)cc(C(F)(F)F)c2)[C@H]1c1ccccc1` (racemic), 5.7 nM. As usually defined, the pKa is the negative logarithm of the acid dissociation constant. High values mean a weaker acid or stronger base, low ones a stronger acid or weaker base. As to `CN(CC(N)=O)[C@@H]1CC[C@H](OCc2cc(C(F)(F)F)cc(C(F)(F)F)c2)[C@H]1c1ccccc1` (racemic), the pKa in series [1] was found to be 5.8. Further, the solubility in the series “physchem” amounted to 16 µg/mL (≈ 33.7 µM). The compound further returned an IC50 at Substance-P receptor of 2.7 nM. `CN(CC(N)=O)C[C@@H]1CC[C@H](OCc2cc(C(F)(F)F)cc(C(F)(F)F)c2)[C@H]1c1ccccc1` (racemic): the solubility in the series “physchem” came to 300 µg/mL (≈ 614 µM). Further, the midpoint of inhibition against Substance-P receptor, the IC50, lay at 1.9 nM.

Compound `O=c1[nH]cc(CN[C@@H]2CC[C@H](OCc3cc(C(F)(F)F)cc(C(F)(F)F)c3)[C@H]2c2ccccc2)[nH]1` (racemic) registered an IC50 against Substance-P receptor of 5.2 nM. For the compound `COC(=O)N(C)[C@@H]1CC[C@H](OCc2cc(C(F)(F)F)cc(C(F)(F)F)c2)[C@H]1c1ccccc1` (racemic), it took 6.2 nM to reach half-maximal inhibition against Substance-P receptor (IC50). `CNC[C@@H]1CC[C@H](OCc2cc(C(F)(F)F)cc(C(F)(F)F)c2)[C@H]1c1ccccc1` (racemic) gave an IC50 against Substance-P receptor of 1.9 nM.

On Substance-P receptor, `N[C@H]1CC[C@@H](OCc2cc(C(F)(F)F)cc(C(F)(F)F)c2)[C@@H]1c1ccccc1` (relative stereo) displayed a half-inhibitory concentration (IC50) of 100 nM. On to `O=c1[nH]nc(CN2CCO[C@H](OCc3cc(C(F)(F)F)cc(C(F)(F)F)c3)[C@@H]2c2ccccc2)[nH]1`, for which the pKa in series [1] was < 3.5. In series [2], the solubility turned out to be 3 µg/mL (≈ 5.97 µM).

`CN(Cc1nnc[nH]1)[C@@H]1CC[C@H](OCc2cc(C(F)(F)F)cc(C(F)(F)F)c2)[C@H]1c1ccccc1` (racemic) had a 50% inhibitory concentration (IC50) against Substance-P receptor of 1.1 nM. In “physchem”, `O=C1CC[C@@H](CN[C@@H]2CC[C@H](OCc3cc(C(F)(F)F)cc(C(F)(F)F)c3)[C@H]2c2ccccc2)N1` yielded a solubility of 4000 µg/mL (≈ 7990 µM). For the same compound, it took 1.5 nM to reach half-maximal inhibition against Substance-P receptor (IC50). `COC(=O)N[C@@H]1CC[C@H](OCc2cc(C(F)(F)F)cc(C(F)(F)F)c2)[C@H]1c1ccccc1` (racemic): the IC50 against Substance-P receptor amounted to 0.89 nM. For the same compound, in the series filed under Cavia porcellus, the inhibition in vivo at 1 mg/kg was < 25%.

`CN(Cc1n[nH]c(=O)[nH]1)C[C@@H]1CC[C@H](OCc2cc(C(F)(F)F)cc(C(F)(F)F)c2)[C@H]1c1ccccc1` (racemic) gave a solubility in the series “physchem” of 200 µg/mL (≈ 378 µM). At Substance-P receptor, this compound displayed an IC50 of 2 nM. On Substance-P receptor, `CNC(=O)N[C@@H]1CC[C@H](OCc2cc(C(F)(F)F)cc(C(F)(F)F)c2)[C@H]1c1ccccc1` (racemic) yielded an IC50 of 2.7 nM. For the compound `CN(C)C(=O)N(C)[C@@H]1CC[C@H](OCc2cc(C(F)(F)F)cc(C(F)(F)F)c2)[C@H]1c1ccccc1` (racemic), half-maximal inhibition at Substance-P receptor (IC50) was put at 16 nM. Compared with the last compound, the IC50 is about 5.9-fold higher. Consider `CN(CC(N)=O)[C@H]1CC[C@H](OCc2cc(C(F)(F)F)cc(C(F)(F)F)c2)[C@@H]1c1ccccc1` (racemic), for which the IC50 on Substance-P receptor came out at 2.1 nM. Against the preceding compound, the IC50 is about 7.6-fold lower. `N[C@@H]1CC[C@H](OCc2cc(C(F)(F)F)cc(C(F)(F)F)c2)[C@H]1c1ccccc1` (relative stereo) returned a half-maximal inhibitory concentration (IC50) on Substance-P receptor of 2.3 nM.

In turn, `NC(=O)CN[C@@H]1CC[C@H](OCc2cc(C(F)(F)F)cc(C(F)(F)F)c2)[C@H]1c1ccccc1` (relative stereo) gave an IC50 against Substance-P receptor of 0.95 nM.

At Substance-P receptor, `CN[C@H]1CC[C@H](OCc2cc(C(F)(F)F)cc(C(F)(F)F)c2)[C@@H]1c1ccccc1` (racemic) came in with a half-inhibitory concentration (IC50) of 7.2 nM. For the compound `NC(=O)CN[C@H]1CC[C@@H](OCc2cc(C(F)(F)F)cc(C(F)(F)F)c2)[C@@H]1c1ccccc1` (relative stereo), the 50% inhibitory concentration (IC50) at Substance-P receptor was 45 nM. This IC50 is about 6.2-fold higher than that of the compound before.

For `NC(=O)CN[C@@H]1CC[C@H](OCc2cc(C(F)(F)F)cc(C(F)(F)F)c2)[C@H]1c1ccccc1` (racemic), the pKa in series [1] stood at 6.6. Also, the solubility in the series “physchem” was found to be 1100 µg/mL (≈ 2390 µM). Further, at Substance-P receptor, inhibition was half-maximal at 1.3 nM (IC50). In the series filed under Cavia porcellus, the inhibition in vivo at 1 mg/kg was 60%. The compound `FC(F)(F)c1cc(CO[C@H]2CC[C@@H](CN3CCOCC3)[C@@H]2c2ccccc2)cc(C(F)(F)F)c1` (racemic) gave an IC50 at Substance-P receptor of 8.2 nM. `O=C(N[C@@H]1CC[C@H](OCc2cc(C(F)(F)F)cc(C(F)(F)F)c2)[C@H]1c1ccccc1)OCc1ccccc1` (racemic) showed an IC50 against Substance-P receptor of 40 nM. Against the preceding compound, the IC50 is about 4.9-fold higher. In turn, `NC(=O)N[C@H]1CC[C@H](OCc2cc(C(F)(F)F)cc(C(F)(F)F)c2)[C@@H]1c1ccccc1` (racemic) registered a 50% inhibitory concentration (IC50) against Substance-P receptor of 9.8 nM. Against the preceding compound, the IC50 is about 4.1-fold lower. As to `CN(C)C(=O)N[C@@H]1CC[C@H](OCc2cc(C(F)(F)F)cc(C(F)(F)F)c2)[C@H]1c1ccccc1` (racemic), at Substance-P receptor, 5 nM corresponded to half-maximal inhibition (IC50). This IC50 is about 2-fold lower than that of the compound before. One may read the bioavailability as the share of a dose that reaches the circulation, judged against a reference dose that is usually intravenous. Low values mean little systemic uptake, high ones much systemic uptake. For the compound `C[C@@H](O[C@H]1OCCN(Cc2n[nH]c(=O)[nH]2)[C@H]1c1ccc(F)cc1)c1cc(C(F)(F)F)cc(C(F)(F)F)c1` [APREPITANT], the bioavailability turned out to be 53% in series [3] and 40% in series [4]. Besides, the pKa in series [1] was < 3.5. In series [2], the solubility is < 0.5 µg/mL. In the series “physchem”, `NC(=O)CN[C@H]1CC[C@H](OCc2cc(C(F)(F)F)cc(C(F)(F)F)c2)[C@@H]1c1ccccc1` (racemic) registered a solubility of 800 µg/mL (≈ 1740 µM). This compound displayed an IC50 on Substance-P receptor of 8.3 nM.

In “physchem”, `CN(C[C@@H]1CCC(=O)N1)[C@@H]1CC[C@H](OCc2cc(C(F)(F)F)cc(C(F)(F)F)c2)[C@H]1c1ccccc1` yielded a solubility of 510 µg/mL (≈ 991 µM). For the same compound, at Substance-P receptor, half-maximal inhibition (IC50) required 0.81 nM. As for `NC(=O)N[C@@H]1CC[C@H](OCc2cc(C(F)(F)F)cc(C(F)(F)F)c2)[C@H]1c1ccccc1` (racemic), the IC50 against Substance-P receptor worked out at 3.5 nM. At Substance-P receptor, `NC[C@@H]1CC[C@H](OCc2cc(C(F)(F)F)cc(C(F)(F)F)c2)[C@H]1c1ccccc1` (racemic) gave a concentration for half-maximal inhibition (IC50) of 2.7 nM. The IC50 values of the last two compounds are within 1.5-fold of each other. The compound `O=C(O)[C@@H]1CC[C@H](OCc2cc(C(F)(F)F)cc(C(F)(F)F)c2)[C@H]1c1ccccc1` (racemic) registered a 50% inhibitory concentration (IC50) against Substance-P receptor of 67 nM. At Substance-P receptor, `O=C1CC[C@@H](CN[C@H]2CC[C@@H](OCc3cc(C(F)(F)F)cc(C(F)(F)F)c3)[C@@H]2c2ccccc2)N1` gave an IC50 of 260 nM.
